In patent publication US11484529B2, “Desmethylanethole trithione derivatives for the treatment of diseases linked to mitochondrial reactive oxygen species (ROS) production” (OP2 Drugs, priority 2017, dated 2022):

Key:
[1] = system: diet-induced obese (DIO) mice; assay: Chronic treatment in diet-induced obese mice (body weight, body composition, ITT, glucose); assay type: in vivo, mouse; conditions: for AUC of glucose during ITT: mean±SEM, vehicle 12812.50±750.35
Method: The aim of the study was to determine whether the compound AOL, administered daily at the doses of 5 mg/kg and 10 mg/kg for up to five weeks by intraperitoneal (i.p.) daily administration in diet-induced obese (DIO) mice fed with a high-fat diet (HFD), modifies food intake, body weight, adiposity and glucose metabolism.
Mice were fed ad libitum with a HFD (60% of calories from fat, mostly lard) for twelve weeks before the pharmacological study begun. Animals received AOL or its vehicle by intraperitoneal (i.p.) administration and were maintained on HFD for the length of the study. Food intake and body weight were measured daily and recorded for up to three consecutive weeks.
Thirty 7-weeks-old male C57/B16J mice arrived to the laboratory on 25 Feb. 2016 and underwent a first in vivo body composition analysis (Echo MRI 900, EchoMRI Systems) after 1 week of adaptation to the experimental housing room. After this first MRI analysis, animals were fed a high-fat diet (HFD) ad libitum for a period of twelve weeks. Thereafter, they underwent a second MRI analysis and were distributed into 3 experimental groups of equivalent body weight and body composition.
Once the pharmacological treatment started (day 1), food intake (FI) and body weight (BW) were measured daily before the dark phase in animals housed in their home cage. Spillage of food was checked daily. The food consumed was calculated by subtracting the food left in the hoppers from the initial pre-weighted amount. FI and BW were measured for three consecutive weeks. Afterwards animals underwent a third MRI analysis in order to observe potential effects of the treatment onto the body composition (changes in fat and lean mass), followed by a glucose tolerance test (GTT) and an insulin tolerance test (ITT). Mice received daily i.p. administration of AOL or its vehicle for a total length of five weeks, until they were sacrificed.
A nuclear echo magnetic resonance imaging whole-body composition analyzer (Echo MRI 900; EchoMedical Systems) was used to repeatedly assess body fat and lean mass in conscious mice.
Animals were injected i.p. with 1.5 g/kg of D-Glucose (Sigma-Aldrich) for the GTT or with 0.5 U/kg of insulin (Humulin, Lilly, France) for the ITT. For the GTT and the ITT, animals were fasted overnight. The tests were conducted the following morning. Blood samples were taken from the tail vein at different time points (0, 15, 30, 60, 90 and 120 minutes after the i.p. administration of glucose or insulin) and glucose concentration was measured using glucose sticks (OneTouch Vita, Lifescan France, Issy les Moulineaux, France).
At sacrifice, blood samples were collected, blood glucose was rapidly assessed using glucose sticks and blood samples were then centrifuged at 3000 rpm for 15 minutes. The obtained plasma was stored at −80° C. for subsequent measurement of insulin, which was carried out by performing an ELISA (kit from Mercodia, Uppsala, Sweden), according to the manufacturer's instructions.

[2] = cited from earlier work
[3] = system: retina (outer nuclear layer); assay: Progressive light-induced retinal degeneration; assay type: in vivo, rat; conditions: 6 mg/kg/day, three times a day, 7 days
Method: Rats bred under cyclic low-intensity lighting were transferred to cyclic high-intensity lighting for one week and divided into 3 groups (non-treated animals, vehicle-treated animals and AOL-treated animals). Treated animals received injections of vehicle or AOL at a dose of 6 mg/kg/day, three times a day for the 7 days of the transfer (30 minutes before light-ON; at […]). After one week, animals were transferred in the dark (D0).
A control group (“untransferred”) was not transferred to cyclic high-intensity lighting but received the same treatment as described above: injections of vehicle or AOL three times a day for 7 days, followed by a transfer in the dark (D0).
Animals were then sacrificed for histological analysis.

[4] = system: chronic hypoxic rats and monocrotaline-treated rats; assay: Pulmonary hypertension rat models (chronic hypoxia, monocrotaline); assay type: in vivo
Method: Male Wistar rats (300-400 g) were separated into 3 groups and used 4 weeks later: • the first group (control or normoxic rats—N rats) was housed in ambient room air; • the second group (chronic hypoxic rats—CH rats) was exposed to chronic hypoxia for 3 weeks in a hypobaric chamber (50 kPa); and • the third group (MCT rats) was injected with a single intraperitoneal dose of monocrotaline at a dose of 60 mg/kg. MCT (Sigma, St Quentin Fallavier, France) was dissolved in an equal volume of HCl (1 M) and NaOH (1 M).
In each group, some animals were treated with AOL (Sulfarlem, EG Labo Eurogenerics. Crushed tablets mixed with food, fed ad libitum) and some other animals were untreated. Eaten food was weighed every day to estimate the AOL dose administered. 10 mg/kg/day was thus administered during the 3 weeks of experiment for the second and third groups.
Pulmonary hypertension was assessed by measuring both the mean pulmonary arterial pressure (mPAP) and right ventricle hypertrophy. To measure PAP, N, CH and MCT rats were anesthetized with pentobarbital sodium (Centravet) by intraperitoneal injection (60 mg/kg) and mPAP was measured, in closed-chest rats, through a catheter inserted in the right jugular vein, then through the right atria and the right ventricle into the pulmonary artery, and attached to a Baxter Uniflow gauge pressure transducer. Right ventricle hypertrophy was estimated by the ratio of right ventricle (RV) to left ventricle plus septum (LV+S) weight (Fulton index).
Pulmonary arteries (PA) remodeling was assessed by measuring the percentage of the PA medial thickness from sections of paraffin-embedded lung. Lung sections were first stained with hematoxylin and eosin (VWR) according to common histological procedure.

SMILES: COc1ccc(-c2cc(=S)ss2)cc1 [AOL, 5-(4-methoxyphenyl)-3H-1,2-dithiole-3-thione]
- effect on body weight ([1]; 5 and 10 mg/kg i.p. daily, HFD, three weeks): did not have a significant effect
- AUC of glucose during ITT ([1]; AOL 5 mg/kg): 15006.56±1139.69
- action of insulin on circulating glucose levels during an ITT ([1]; AOL 10 mg/kg): significantly blunted the action of insulin
- AUC of glucose during ITT ([1]; AOL 10 mg/kg): 18168.33±1562.90
- blood glucose levels ([1]; after five weeks of treatment, 2-hour fasted mice): tended to decrease blood glucose levels
- lean mass ([1]; after three weeks of chronic administration): did not have any effect on lean mass
- fat mass ([1]; after three weeks of chronic administration, p=0.13): tended to reduce fat mass
- body weight and food intake ([1]; chronic daily administration, data not shown): tended to decrease body weight and food intake
- bioavailability [2]: known to be very short
- thickness of the outer nuclear layer (ONL) ([3]; transferred to cyclic high-intensity lighting): significant increase of the thickness of the ONL
- thickness of the outer nuclear layer (ONL) ([3]; untransferred control group): no effect on ONL's thickness
- Fulton index (right ventricular hypertrophy) ([4]; 10 mg/kg/day in food): no effect on the Fulton index
- reduction of pulmonary arteries diameter (PA remodeling) ([4]; CH rats, 10 mg/kg/day): 30%
- mean pulmonary arterial pressure ([4]; MCT rats, 10 mg/kg/day in food, 3 weeks): decreased in MCT rats
- mean pulmonary arterial pressure ([4]; normoxic (N) rats): no significant effect on the control group
